# Experimental data from patent publication US8309121B2, “Dermatological compositions comprising avermectin nanocapsules” (Galderma S.A., priority 2006, dated 2012).
# Assays:
# [1] = cited from earlier work
# [2] = Stability of ivermectin in various excipients; assay type: physicochemical; settings: for T 1 month 40° C. content / T 1 month Tambient content / T 3 months 40° C. content / T 3 months Tambient content: T0 in mg/g; for T 1 month 40° C. (% in brackets) / T 1 month Tambient (% in brackets) / T 3 months 40° C. (% in brackets) / T 3 months Tambient (% in brackets): relative to T0
# Excerpt: (§1) There are numerous excipients used in the formulation of emulsions or liposomes which result in degradation of ivermectin. The Table below presents the results of tests of stability and solubility of ivermectin in various excipients: […]
# [3] = Solubility of ivermectin in various excipients; assay type: physicochemical
# Excerpt: as §1
# [4] = in ceteareth-25, ceteareth-6, PEG-8-distearate, PEG-8-stearate, PEG-660-OH-stearate, PEG-4000, polyoxyethylene-10, glycerol monostearate S/E, propylene glycol dicaprylate, cetearyl octanoate, polyglycerol-3-diolate, C18-C36 triglycerides, Gamma cyclodextrin, soybean lecithin, cholesterol, stearic acid; cited from earlier work
# [5] = in Labrafac Hydro WL1219 (caprylic/capric triglyceride PEG-4 esters)
# [6] = in Labrafac Hydro WL1219, 1 month
# [7] = in Lipoid S75-3 + benzyl alcohol, 1 month
# [8] = in Lipoid S75-3 + benzyl alcohol
# [9] = in Mygliol 812 (medium-chain triglycerides of caprylic and capric acids)
# [10] = in Ph90H + benzyl alcohol, 1 month
# [11] = in Solutol HS15 (PEG-15 hydroxystearate)
substance,measurement,setting,value
ivermectin,Stability in a hydrophilic medium (in words),[1]; hydrophilic medium,degraded
same,solubility in water,[1]; water,5 µg/mL
same,Degradation by hydrogenated lecithins (in words),"[2]; hydrogenated lecithins, studies of Example 1",do not degrade
same,T 1 month 40° C. content,"[2]; in Benzyl alcohol, 1 month",9.7
same,T 1 month 40° C. (% in brackets),"[2]; in Benzyl alcohol, 1 month",(98%)
same,T 1 month Tambient content,"[2]; in Benzyl alcohol, 1 month",9.8
same,T 1 month Tambient (% in brackets),"[2]; in Benzyl alcohol, 1 month",(99%)
same,T0 content,[2]; in Benzyl alcohol,9.9 mg/g
same,Stability (in words),[2]; in Crodamol DA,Stable over 1 month
same,T0 content,[2]; [5],9.0 mg/g
same,T 1 month 40° C. content,[2]; [6],6.7
same,T 1 month 40° C. (% in brackets),[2]; [6],(75%)
same,T 1 month Tambient content,[2]; [6],8.5
same,T 1 month Tambient (% in brackets),[2]; [6],(95%)
same,T 3 months 40° C. content,[2]; in Labrafac Hydro WL1219,4.2
same,T 3 months 40° C. (% in brackets),[2]; in Labrafac Hydro WL1219,(47%)
same,T 3 months Tambient content,[2]; in Labrafac Hydro WL1219,6.3
same,T 3 months Tambient (% in brackets),[2]; in Labrafac Hydro WL1219,(70%)
same,T0 content,[2]; in Labrasol (PEG-8 caprylic/capric glycerides),8.1 mg/g
same,T 1 month 40° C. content,"[2]; in Labrasol, 1 month",7.9
same,T 1 month 40° C. (% in brackets),"[2]; in Labrasol, 1 month",(98%)
same,T 1 month Tambient content,"[2]; in Labrasol, 1 month",8.1
same,T 1 month Tambient (% in brackets),"[2]; in Labrasol, 1 month",(100%)
same,T 3 months 40° C. content,[2]; in Labrasol,5.6
same,T 3 months 40° C. (% in brackets),[2]; in Labrasol,(69%)
same,T 3 months Tambient content,[2]; in Labrasol,8.1
same,T 3 months Tambient (% in brackets),[2]; in Labrasol,(100%)
same,T 1 month 40° C. content,[2]; [7],9.5
same,T 1 month 40° C. (% in brackets),[2]; [7],(101%)
same,T 1 month Tambient content,[2]; [7],9.5
same,T 1 month Tambient (% in brackets),[2]; [7],(101%)
same,T 3 months 40° C. content,[2]; [8],9.7
same,T 3 months 40° C. (% in brackets),[2]; [8],(103%)
same,T 3 months Tambient content,[2]; [8],9.2
same,T 3 months Tambient (% in brackets),[2]; [8],(98%)
same,T0 content,[2]; [8],9.4 mg/g
same,T 1 month 40° C. content,"[2]; in Miglyol 812, 1 month",8.2
same,T 1 month 40° C. (% in brackets),"[2]; in Miglyol 812, 1 month",(94%)
same,T 1 month Tambient content,"[2]; in Miglyol 812, 1 month",8.3
same,T 1 month Tambient (% in brackets),"[2]; in Miglyol 812, 1 month",(95%)
same,T 3 months 40° C. content,[2]; in Miglyol 812,8.4
same,T 3 months 40° C. (% in brackets),[2]; in Miglyol 812,(96%)
same,T 3 months Tambient content,[2]; in Miglyol 812,8.3
same,T 3 months Tambient (% in brackets),[2]; in Miglyol 812,(96%)
same,T0 content,[2]; in Miglyol 812,8.7 mg/g
same,Stability (in words),[2]; [9],not perfectly stable
same,T0 content,[2]; in Ph90H (Phospholipon 90H) + benzyl alcohol,9.25 mg/g
same,T 1 month 40° C. content,[2]; [10],9.5
same,T 1 month 40° C. (% in brackets),[2]; [10],(103%)
same,T 1 month Tambient content,[2]; [10],9.7
same,T 1 month Tambient (% in brackets),[2]; [10],(105%)
same,T0 content,[2]; [11],9.8 mg/g
same,degradation at 1 month,"[2]; in Solutol HS15, 1 month",28%
same,T 1 month 40° C. content,"[2]; in Solutol HS15, 1 month",7.1
same,T 1 month 40° C. (% in brackets),"[2]; in Solutol HS15, 1 month",(72%)
same,T 1 month Tambient content,"[2]; in Solutol HS15, 1 month",9.4
same,T 1 month Tambient (% in brackets),"[2]; in Solutol HS15, 1 month",(95%)
same,Solubility max,[3]; in Benzyl alcohol,32.8 mg/g
same,Solubility max,[3]; in Benzyl benzoate,44.2 mg/g
same,Solubility max,[3]; in Crodamol DA,94.2 mg/g
same,Solubility max,[3]; [5],70 mg/g
same,Solubility max,[3]; in Miglyol 812,17.9 mg/g
same,Solubility (in words),[3]; [9],relatively low solubility
same,Solubility max,[3]; [11],10.8 mg/g
same,Stability in lipophilic excipients (in words),[4],degradation
